Measured values reported in US6939303B2, “Method and system of determining cardiac contractility” (Provecto Tecnico R-2000, Ca, priority 1999, dated 2005).

Key:
[1] = system: patients with hyperthyroidism; experiment: Cardiac contractility with propranolol, data of Merillon et al. (Example 8); type: in vivo, human; conditions: administration of propranolol
Method: (§1) The capability of the method of the present invention to assess cardiac contractility was evaluated using data from several experiments published in the literature and suitable for analysis. In this approach, afterload in the method was expressed as systolic pressure. Since different methodologies to measure cardiac contractility were used, the comparison between them was attained by analyzing the amount of changes (delta values) and were statistically treated using paired t test, ANOVA, correlation, and agreement between methods when applicable, as, for example, described in Lancet, Vol. 1, pages 307 to 310 (1986) by Bland et al.
Cardiovascular data was utilized from “Left Ventricular Function and Hyperthyroidism,” Br. Heart J., Vol. 46, pages 137 to 143 (1981) by Merillon et al. In patients with hyperthyroidism and invasive assessment of ventricular function, the administration of propranolol produced a fall in cardiac contractility. This change was similar when the inotropic state was assessed by means of P/V ratio (−28%), ejection fraction (−19%), dP/dt (−20%), and dP/dt/TP (−19%). Use of the method of the present invention gave a value for the change in cardiac contractility of −17%.

Conscious Dog [2] = experiment: Changes in preload, afterload and inotropic state, data of Mahler et al. (Example 13); type: in vivo
Method: as §1
Cardiovascular data was utilized from “Effects of Changes in Preload, Afterload and Inotropic State on Ejection and Isovolumic Phase Measures of Contractility in the Conscious Dog,” Am. J. Cardiol., Vol. 35, pages 623 to 634 (1975) by Mahler et al. In this study, increase in preload was attained by Ringer's solution infusion, and rise of blood pressure with phenylephrine administration. […] The method of this invention was less sensitive than the other indices to measure changes in the inotropic state induced with isoproterenol or propranolol.

[3] = system: patients with hyperthyroidism; conditions: administration of propranolol; cited from earlier work
Conscious Dog [4] = conditions: cited from earlier work

CC(C)NCC(O)COc1cccc2ccccc12 (centres unmarked) [Propranolol, propranolol]
Change in cardiac contractility, method of the present invention [1]: −17%
Method of This Invention Avg. Value (Conscious Dog [2]; Example 13, animals, control 100.0): 95.2
Change, method of the present invention (Conscious Dog [2]; conscious dog): −4.8%
Change in inotropic state, ESP/ESV [3]: −32%
Change in inotropic state, P/V ratio [3]: −28%
Change in inotropic state, dP/dt [3]: −20%
Change in inotropic state, dP/dt/TP [3]: −19%
Change in inotropic state, ejection fraction [3]: −19%
Change in inotropic state, velocity of shortening [3]: −32%
Vcf Avg. Value (velocity of shortening) (Conscious Dog [4]; Example 13, animals): 1.80 circulation per second
dP/dT Avg. Value (Conscious Dog [4]; Example 13, animals): 3000 mm Hg per second
Change, Vcf (Conscious Dog [4]; conscious dog): −18%
Change, dP/dt (Conscious Dog [4]; conscious dog): −18%
Change, dP/dt DP40 (Conscious Dog [4]; conscious dog): −13%
